# Laboratory results taken from patent US5696146A, “Indole derivatives as steroid 5α-reductase inhibitors” (Pfizer Inc., priority 1993, dated 1997).
# Assays:
# [1] = target: T1, human testosterone 5α-reductase-2 (Homo sapiens, UniProt P31213); assay: in vitro inhibition of human testosterone 5α-reductase-2 from hyperplastic human prostate tissue (test method 2); assay type: biochemical; details: hyperplastic human prostate particulate, pH 5.2, 37° C., 30 minutes
# T1 construct: using tissue from hyperplastic human prostates; from tissue; host or cells: hyperplastic human prostate, 100,000G particulate preparation
# T1 sequence (P31213 1-254): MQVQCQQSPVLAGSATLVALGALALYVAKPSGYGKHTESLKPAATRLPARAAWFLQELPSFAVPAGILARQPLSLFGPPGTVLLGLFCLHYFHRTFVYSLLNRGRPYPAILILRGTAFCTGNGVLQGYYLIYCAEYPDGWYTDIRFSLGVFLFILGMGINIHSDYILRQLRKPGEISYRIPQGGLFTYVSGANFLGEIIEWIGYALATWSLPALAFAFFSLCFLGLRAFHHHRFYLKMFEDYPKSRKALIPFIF
# Method: (2) The compounds of the formula (I) may be tested for their potency in inhibiting human testosterone 5α-reductase-2 using tissue from hyperplastic human prostates. In determining inhibitory potency against human prostatic 5α-reductase-2 the following procedure was employed:
# Frozen human prostate tissue was pulverised in liquid nitrogen using a steel mortar and pestle. The powdered tissue was homogenised in 4 volumes of Buffer A (20 mM sodium phosphate, pH 6.5, containing 0.32M sucrose, 1 mM dithiothreitol and 50 μM NADPH) with an Ultra-Turrax homogeniser (Janke and Kunkel GmBH & Co., Staufen i. BR., Germany). The homogenate was centrifuged at 500G for 5 minutes to remove large particles of tissue, and the supernatant was then centrifuged at 100,000G for 1 hour. The resulting pellet was dispersed in Buffer A (1 ml per g of prostate tissue originally used) with the Ultra-Turrax homogeniser. This particulate preparation was then filtered through 2 layers of cheesecloth and the filtrate was stored as 2ml samples at -70° C.
# The following components, dissolved in Buffer B (25 mM citrate phosphate buffer, pH 5.2), were added to a test tube: 100 μl of [^3 H]-testosterone (1 μCi, 1 nmol; Du Pont, NEN Research Products, Stevenage, U.K.), 100 μl of NADPH regeneration system (5 mM NADPH, 50 mM glucose 6-phosphate, 5 units/ml glucose 6-phosphate dehydrogenase), a compound of the formula (I) dissolved in 5 μl of dimethyl sulphoxide, and Buffer B to give a final reaction volume of 1 ml. The mixture was warmed to 37° C. and the reaction started by addition of an aliquot of prostate particulate suspension. The reaction mixture was incubated at 37° C. for 30 minutes and was then quenched by addition, with vigorous mixing, of 2 ml of ethyl acetate containing 20 μg each of testosterone and 5α-dihydrotestosterone as carriers. The aqueous and organic layers were separated by centrifugation at 2000 G for 10 minutes. The organic layer was transferred to a second test tube and evaporated to dryness under nitrogen. The residue was dissolved in 50-80μl of absolute ethanol, spotted onto a silica gel 60 F254 TLC plate (E. Merck, Darmstadt, Germany) and developed in dichloromethane:acetone (185:15).
# The radiochemical content in the bands of the substrate (testosterone) and the product (5α-dihydrotestosterone) were determined with a RITA Radio TLC Analyser (Raytest Instruments Ltd., Sheffield, U.K.). The percent of recovered radiolabel converted to 5α-dihydrotestosterone was calculated and used to determine enzyme activity. All incubations were conducted so that no more than 15% of substrate (testosterone) was converted to product.
# The experimentally obtained data for a range of inhibitor concentrations was computer fitted to a sigmoidal dose-response curve and concentrations of compound giving 50% inhibition of 5α-reductase activity (IC50 's) were calculated using a SIGFIT program (De Lean, A., Munson, P. J. and Rodbard, D., American Journal of Physiology, 235, E97 (1978)).
# (§1) The data were obtained using test method (4) set out on page 27 of the specification and test method (2) described on pages 24 to 26 of the specification, respectively.
# [2] = target: T2, human testosterone 5α-reductase-1 (Homo sapiens, UniProt P18405); assay: in vitro inhibition of cloned human testosterone 5α-reductase-1 (test method 4); assay type: biochemical
# T2 construct: expressed in transfected cells
# T2 sequence (P18405 1-259): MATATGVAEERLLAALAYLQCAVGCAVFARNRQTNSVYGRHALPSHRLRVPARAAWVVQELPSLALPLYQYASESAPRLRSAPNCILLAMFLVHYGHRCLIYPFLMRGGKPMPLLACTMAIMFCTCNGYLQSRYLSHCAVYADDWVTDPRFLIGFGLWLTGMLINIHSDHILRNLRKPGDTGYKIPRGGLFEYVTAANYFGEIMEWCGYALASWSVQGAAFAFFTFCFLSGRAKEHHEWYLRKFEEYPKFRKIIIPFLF
# Excerpt: (4) The compounds of the formula (I) may be tested in vitro for human testosterone 5α-reductase-1 inhibitory activity using cloned human testosterone 5α-reductase-1 according to the procedure described in Proc. Natl. Acad. Sci. USA, 87, 3640 (1990).
# as §1
SMILES,IC50 [1] [nM],IC50 [2] [nM]
"CCCCC1(c2ccc(CCC)cc2)Oc2ccc(CC(=O)c3cn(CCCC(=O)O)c4ccccc34)cc2O1 (stereo not drawn) [Example 1, 4-(3-[(2-n-Butyl-2-[4-n-propyl]phenyl-1,3-benzodioxolan-5-yl)methylcarbonyl]indol-1-yl)butanoic acid]",6.9,15.5
CCCCCCC1(c2ccc(CCC)cc2)Oc2ccc(CC(=O)c3cn(CCCC(=O)O)c4ccccc34)cc2O1 (stereo not drawn) [Example 2],16.7,24
CCCc1ccc(C2(CCC)Oc3ccc(CC(=O)c4cn(CCCC(=O)O)c5ccccc45)cc3O2)cc1 (stereo not drawn) [Example 3],13.3,14
CCCCCC1(c2ccc(CCC)cc2)Oc2ccc(CC(=O)c3cn(CCCC(=O)O)c4ccccc34)cc2O1 (stereo not drawn) [Example 4],16.9,11
"CCCCC1(c2ccc(CC)cc2)Oc2ccc(CC(=O)c3cn(CCCC(=O)O)c4ccccc34)cc2O1 (stereo not drawn) [Example 5, 4-(3-[(2-n-butyl-2-[4-ethyl]phenyl-1,3-benzodioxolan-5-yl)methylcarbonyl]indol-1-yl)butanoic acid]",4.5,11
CCCCC1(c2ccc(CCC)cc2)Oc2ccc(CC(=O)c3cn(CCCC(=O)O)c4ccccc34)cc2O1 (stereo not drawn) [Example 6],2.3,17.5
